Structures are written as SMILES. Converted amounts (≈) assume the structure as drawn. Where two headings read alike, the source gives them in different places.

The test system of one experiment is S. aureus RN4220. The experiment can be described thus: MIC microbroth dilution, S. aureus RN4220. Format: cell-based, Staphylococcus aureus. As to conditions: for MIC: Staphylococcus aureus. A general note: Broth dilution looks for growth in wells or tubes with falling amounts of substance.
The next experiment deals with ecFabI (Escherichia coli (strain K12), UniProt P0AEK4). The experiment is described as follows: ecFabI inhibition kinetics. Format: biochemical. The settings on record: single point progress curve analysis.
A further experiment deals with E. coli MG1655 ΔacrAB. The experiment is described as follows: microbe, parasite or virus in culture. Type of experiment: cell-based, Escherichia coli. The settings on record: Escherichia coli, MG1655.
In experiment [1] the target is M. tuberculosis enoyl-ACP reductase InhA (Mycobacterium tuberculosis (strain ATCC 25618 / H37Rv), UniProt P9WGR1). The experiment is described as follows: InhA inhibition kinetics. Format: biochemical.
In a further experiment the test system is M. tuberculosis H37Rv. The experiment can be described thus: MIC microbroth dilution, M. tuberculosis H37Rv. Type of experiment: cell-based. As to conditions: Mycobacterium tuberculosis, H37RV, read-out: Mycobacterium tuberculosis MIC (μg/mL) H37Rv.
The next experiment addresses saFabI (Staphylococcus aureus (strain MRSA252), UniProt Q6GI75). The experiment is described as follows: saFabI inhibition kinetics. Type of experiment: biochemical.
For a further experiment, the system named is F. tularensis LVS. The experiment is described as follows: microbe, parasite or virus in culture. Type of experiment: cell-based. As to conditions: Francisella tularensis, read-out: Francisella tularensis MIC (μg/mL) LVS, 2-pyridones table.
For a further experiment, the system named is Bt38. The experiment can be described thus: microbe, parasite or virus in culture. As to conditions: Burkholderia pseudomallei, read-out: Burkholderia pseudomallei MIC (μg/mL) Bt38. Format: cell-based.
Experiment [2] has as its target Francisella tularensis FabI (Francisella tularensis subsp. tularensis (strain SCHU S4 / Schu 4), UniProt Q5NGQ3). The experiment is described as follows: biochemical.
A further experiment deals with bpFabI (Burkholderia pseudomallei, UniProt A0A0H3HP34). The experiment can be described thus: biochemical.
Setting [3] is: RN4220, S. aureus RN4220, read-out: MIC.
Setting [4] is: Ki^app (nM), saFabI, [S]/KS = 2.
[5] abbreviates: RN4220, 2-pyridones table, read-out: Staphylococcus aureus MIC (μg/mL) RN4220.
Setting [6] is: Staphylococcus aureus Ki (in brackets under IC50), 2-pyridones table.

With `Oc1ccccc1Oc1ccccc1` [PT51, reference compound], in the experiment with S. aureus RN4220 (setting [3]), the MIC stood at 687 µM.
Still for that read-out and setting: under `Cc1ccc(Oc2ccccc2)c(O)c1` [PT53, reference compound] stands 20 µM.
For the compound `Oc1cc(F)ccc1Oc1ccccc1` [PT55], the Ki came out at 92.6 nM on ecFabI ([S]/KS = 0.19, binds E-NAD+ binary complex, read-out: Ki^app) and 1.1 nM on ecFabI (binds E-NAD+ binary complex, read-out: Ki). The same compound showed an MIC with E. coli MG1655 ΔacrAB of 1.2 µM (≈ 0.245 µg/mL).
`Cn1cc(Oc2ccc([N+](=O)[O-])cc2)c(=O)cc1CCl` [PT151]: in [1] (at 1 μM, [E] = 50 nM), the “Mycobacterium tuberculosis enzyme, inhibition at 1 μM” value is on record as “No”.
`Cc1cc([N+](=O)[O-])ccc1Oc1cn(C)c(CCl)cc1=O` [PT152]: the IC50 (as a rule, the midpoint of a concentration-inhibition curve) in experiment [1] was determined as 2250 nM. Moreover, the MIC in the experiment on M. tuberculosis H37Rv (4-pyridones table) was 12.5 µg/mL (≈ 40.5 µM).
`CCCCCCc1cc(=O)c(Oc2ccccc2C#N)cn1C` [PT159]: the Ki at saFabI (Ki (nM), saFabI) was 11 ± 0.9 nM; on saFabI (setting [4]) it was 41 ± 3.4 nM; at saFabI (Staphylococcus aureus Ki (nM), 4-pyridones table), 11 nM. In experiment [1], this compound registered an IC50 of 629 nM. In addition, the MIC in the experiment on S. aureus RN4220 (RN4220, 4-pyridones table, read-out: Staphylococcus aureus MIC (μg/mL) RN4220) came out at 4 µg/mL; in the experiment with S. aureus RN4220 (setting [3]), 12.9 µM; in the experiment with M. tuberculosis H37Rv (4-pyridones table), 50 µg/mL (≈ 161 µM).
`CCCCCCc1cc(=O)c(Oc2cccnc2C#N)cn1C` [PT167]: in [1], it took 979 ± 152 nM to reach half-maximal inhibition (IC50). Also, the MIC in the experiment with M. tuberculosis H37Rv (4-pyridones table) was 100 µg/mL (≈ 321 µM).
On the same counts, the results for `CCCCCCc1cc(=O)c(Oc2ccccn2)cn1C` [PT168] are 1780 ± 315 nM and 50 µg/mL (≈ 175 µM).
For `CCCCCCc1cc(=O)c(Oc2cccnc2N)cn1C` [PT169], in that order: 379 ± 41 nM and 12.5 µg/mL (≈ 41.5 µM).
As to `CCCCCCc1ccn(Cc2cccc([N+](=O)[O-])c2C)c(=O)c1` [PT174], the IC50 against saFabI amounted to 248 ± 20 nM; in [2], 85 ± 11 nM. Further, the MIC in the experiment on S. aureus RN4220 (setting [5]) worked out at 50 µg/mL; in the experiment with F. tularensis LVS it was 2.12 µg/mL (≈ 6.46 µM); with Bt38 it was 250 µg/mL (≈ 761 µM).
As to `CCCCCCc1ccn(Cc2cccnc2F)c(=O)c1` [PT175], the IC50 against saFabI was above 1000 nM; in experiment [1], above 4000 nM; against bpFabI, above 1000 nM. Moreover, the MIC stood at 50 µg/mL with S. aureus RN4220 (setting [5]), 14 µg/mL (≈ 48.4 µM) with F. tularensis LVS, 50 µg/mL (≈ 173 µM) in the experiment on M. tuberculosis H37Rv (2-pyridones table) and 78.3 µg/mL (≈ 272 µM) in the experiment with Bt38.
Take `CCCCCCc1ccn(Cc2ccccc2)c(=O)c1` [PT179]: the 50% inhibitory concentration (IC50) against saFabI came to 192 ± 30 nM. Further, the Ki at saFabI (Ki (nM), saFabI) stood at 19 ± 2.7 nM; on saFabI (setting [4]) it was 70.4 ± 9.8 nM; at saFabI (setting [6]) it was 19 ± 2.7 nM. The values for the MIC with S. aureus RN4220 (setting [5]) and in the experiment on S. aureus RN4220 (setting [3]) were 32 µg/mL and 119 µM, respectively.
Compound `CCCCCCc1cc(=O)c(Oc2cccnc2F)cn1C` [PT190] came in with an IC50 in experiment [1] of 641 ± 55 nM. Moreover, in the experiment on M. tuberculosis H37Rv (4-pyridones table), the MIC was 25 µg/mL (≈ 82.1 µM).
For `CCCCCCc1ccc(Oc2ccccc2C)c(=O)[nH]1` [PT192], the “Staphylococcus aureus MIC (μg/mL) RN4220” value with S. aureus RN4220 (2-pyridones table) is recorded as “No”. For the same compound, the MIC in the experiment with F. tularensis LVS stood at 9.2 µg/mL (≈ 32.2 µM); in the experiment on Bt38, 8.35 µg/mL (≈ 29.3 µM).
As for `CCCCCCc1ccn(Cc2ccccc2C#N)c(=O)c1` [PT420], the IC50 was determined as 746 ± 165 nM against saFabI and 727 ± 84 nM in experiment [2]. Moreover, the Ki was found to be 29.6 ± 9.5 nM on saFabI (Ki (nM), saFabI); 110 ± 1.7 nM on saFabI (setting [4]); 29.6 ± 0.5 nM at saFabI (setting [6]). Moreover, the MIC was determined as 32 µg/mL in the experiment with S. aureus RN4220 (setting [5]), 109 µM in the experiment on S. aureus RN4220 (setting [3]), 10.2 µg/mL (≈ 34.7 µM) in the experiment with F. tularensis LVS and 44.4 µg/mL (≈ 151 µM) in the experiment on Bt38.
For the compound `CCCCCCc1ccn(Cc2cccc(F)c2)c(=O)c1` [PT421], half-maximal inhibition against saFabI (IC50) required 297 ± 64 nM. Moreover, the MIC with S. aureus RN4220 (setting [5]) is 2 µg/mL.
The compound `CCCCCCc1ccn(Cc2ccc(F)cc2)c(=O)c1` [PT422] yielded an IC50 against saFabI of 222 ± 22 nM. The MIC with S. aureus RN4220 (setting [5]) amounted to 1 µg/mL.
For `CCCCCCc1ccn(Cc2ccccc2F)c(=O)c1` [PT423], in that order: 165 ± 22 nM and 16 µg/mL.
For `CCCCCCc1ccn(Cc2ccc(N)cc2)c(=O)c1` [PT425], in that order: 380 ± 20 nM and around 32 µg/mL.
On the same counts, the results for `CCCCCCc1ccn(Cc2ccc(Cl)cc2)c(=O)c1` [PT426] are 185 ± 18 nM and around 32 µg/mL.
In turn, `CCCCCCc1ccn(Cc2ccc(C(C)=O)cc2)c(=O)c1` [PT427] had a concentration for half-maximal inhibition (IC50) on saFabI of 394 ± 40 nM. The MIC with S. aureus RN4220 (setting [5]) was above 128 µg/mL.

For the origin of these results see US10071965B2, “Pyridone FabI inhibitors and uses thereof” (priority 2015, dated 2018).
